Laboratory results: ChEMBL document CHEMBL1201862, “PubChem BioAssay data set” (2004)
Activity calls are given as the source filed them.

Assays:
HEK293 [1] = test: HEK cell cytotoxicity by LDH release, dose response, cytotoxicity control for IDE activator project, fluorescence, HEK cells (AID 588440); type: functional, cell-based; settings: Homo sapiens;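 note: cytotoxicity by LDH release measuring loss of membrane integrity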
Insulin-degrading enzyme [2] = target: T1, Insulin-degrading enzyme (Homo sapiens, UniProt P14735); test: activators of endogenous IDE in HEK cells, dose response, cell-based, fluorescence polarization (AID 588439); type: functional
T1 sequence (P14735 whole entry): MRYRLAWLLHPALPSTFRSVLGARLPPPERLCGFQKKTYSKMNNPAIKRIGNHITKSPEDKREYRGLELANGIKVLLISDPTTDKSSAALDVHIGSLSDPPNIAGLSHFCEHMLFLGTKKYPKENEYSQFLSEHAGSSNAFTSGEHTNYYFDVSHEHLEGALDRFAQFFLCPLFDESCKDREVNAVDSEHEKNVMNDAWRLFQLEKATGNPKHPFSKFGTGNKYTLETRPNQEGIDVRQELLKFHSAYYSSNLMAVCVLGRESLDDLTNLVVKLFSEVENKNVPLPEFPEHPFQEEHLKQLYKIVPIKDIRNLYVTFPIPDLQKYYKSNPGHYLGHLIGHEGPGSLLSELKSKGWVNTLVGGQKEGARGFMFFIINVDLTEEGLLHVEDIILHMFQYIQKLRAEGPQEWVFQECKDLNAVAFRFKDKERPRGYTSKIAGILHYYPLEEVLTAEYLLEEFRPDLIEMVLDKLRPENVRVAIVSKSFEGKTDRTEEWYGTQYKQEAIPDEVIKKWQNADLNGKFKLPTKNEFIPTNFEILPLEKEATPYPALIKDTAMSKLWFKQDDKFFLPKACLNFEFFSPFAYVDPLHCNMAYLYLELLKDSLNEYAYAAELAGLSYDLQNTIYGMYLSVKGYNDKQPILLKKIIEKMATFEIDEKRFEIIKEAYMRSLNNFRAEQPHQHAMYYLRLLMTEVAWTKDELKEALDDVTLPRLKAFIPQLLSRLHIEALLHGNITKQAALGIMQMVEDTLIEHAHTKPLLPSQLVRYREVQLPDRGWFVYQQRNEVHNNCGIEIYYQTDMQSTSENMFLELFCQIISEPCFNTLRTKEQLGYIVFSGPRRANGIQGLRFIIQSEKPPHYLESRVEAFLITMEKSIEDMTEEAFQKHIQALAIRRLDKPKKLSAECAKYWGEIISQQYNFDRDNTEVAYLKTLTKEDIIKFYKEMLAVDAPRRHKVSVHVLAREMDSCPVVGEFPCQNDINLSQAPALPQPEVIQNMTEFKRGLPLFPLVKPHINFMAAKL

Insulin-degrading enzyme [3] = target: T1, Insulin-degrading enzyme; test: activators of recombinant IDE enzyme, dose response, counter-screen for IDE activator project, biochemical, fluorescence polarization (AID 588681)
HEK293 [4] = test: optical interference in Abeta FP readout, dose response, artefact control for IDE activator project, biochemical, fluorescence polarization (AID 588442); type: functional, cell-based; settings: Homo sapiens
[5] = target: Beta-2 adrenergic receptor (Homo sapiens, UniProt P07550); test: beta2AR agonists driving receptor internalization, dose response, cell-based, FAP fluorogen, flow cytometry, cherry pick 1 (AID 588763); type: functional
Sequence of Beta-2 adrenergic receptor (P07550 whole entry): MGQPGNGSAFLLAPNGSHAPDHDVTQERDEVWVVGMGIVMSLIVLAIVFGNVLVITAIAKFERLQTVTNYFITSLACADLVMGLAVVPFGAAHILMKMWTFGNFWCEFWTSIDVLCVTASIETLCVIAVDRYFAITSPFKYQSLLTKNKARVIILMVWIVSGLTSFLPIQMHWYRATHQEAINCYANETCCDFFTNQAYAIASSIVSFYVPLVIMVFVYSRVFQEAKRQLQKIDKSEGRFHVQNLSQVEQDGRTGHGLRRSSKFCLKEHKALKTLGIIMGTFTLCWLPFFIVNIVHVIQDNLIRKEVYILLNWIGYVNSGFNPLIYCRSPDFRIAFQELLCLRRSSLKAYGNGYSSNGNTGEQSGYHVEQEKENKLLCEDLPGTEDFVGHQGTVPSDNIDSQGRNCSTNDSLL

[6] = inhibitors of intracellular T. cruzi replication, confirmation, NIH3T3 host cells, beta-gal luminescence (AID 2044); type: functional, cell-based;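 note: intracellular parasites grown in NIH/3T3 mouse fibroblasts as host cells; luminescent beta-galactosidase reporter signal from transgenic T. cruzi replicating inside host cells; inhibitors lower the luminescence signal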
[7] = cytotoxicity toward NIH3T3 fibroblasts, dose response, counter-screen, cell-based, ATP luminescence, mouse fibroblasts (AID 2010); type: functional;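 note: cells exposed to compound for about 90 hours before reading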
Keap1/Nrf2 = Keap1/Nrf2 (Homo sapiens, UniProt Q14145); test: Keap1-Nrf2 protein-protein interaction inhibitors, dose response, biochemical, fluorescence polarization, cherry-picked samples (AID 588683)
Sequence of Keap1/Nrf2 (Q16236 whole entry): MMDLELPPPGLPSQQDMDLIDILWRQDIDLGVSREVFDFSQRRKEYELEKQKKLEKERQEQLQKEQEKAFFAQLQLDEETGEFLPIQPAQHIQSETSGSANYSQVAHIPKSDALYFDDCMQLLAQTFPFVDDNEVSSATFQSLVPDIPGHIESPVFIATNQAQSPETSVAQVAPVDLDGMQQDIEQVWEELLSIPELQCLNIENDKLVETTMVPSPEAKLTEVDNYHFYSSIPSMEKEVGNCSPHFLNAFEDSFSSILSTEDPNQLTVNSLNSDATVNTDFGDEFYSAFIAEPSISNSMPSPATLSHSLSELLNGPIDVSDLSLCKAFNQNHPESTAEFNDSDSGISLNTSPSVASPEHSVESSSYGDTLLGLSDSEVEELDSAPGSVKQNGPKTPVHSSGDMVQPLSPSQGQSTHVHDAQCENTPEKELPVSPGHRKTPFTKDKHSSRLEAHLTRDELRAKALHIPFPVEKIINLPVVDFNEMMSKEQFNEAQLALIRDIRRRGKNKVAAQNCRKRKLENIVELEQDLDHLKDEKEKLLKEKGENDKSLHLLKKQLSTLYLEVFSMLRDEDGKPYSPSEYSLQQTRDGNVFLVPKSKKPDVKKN
Sequence of Keap1/Nrf2 (Q14145 whole entry): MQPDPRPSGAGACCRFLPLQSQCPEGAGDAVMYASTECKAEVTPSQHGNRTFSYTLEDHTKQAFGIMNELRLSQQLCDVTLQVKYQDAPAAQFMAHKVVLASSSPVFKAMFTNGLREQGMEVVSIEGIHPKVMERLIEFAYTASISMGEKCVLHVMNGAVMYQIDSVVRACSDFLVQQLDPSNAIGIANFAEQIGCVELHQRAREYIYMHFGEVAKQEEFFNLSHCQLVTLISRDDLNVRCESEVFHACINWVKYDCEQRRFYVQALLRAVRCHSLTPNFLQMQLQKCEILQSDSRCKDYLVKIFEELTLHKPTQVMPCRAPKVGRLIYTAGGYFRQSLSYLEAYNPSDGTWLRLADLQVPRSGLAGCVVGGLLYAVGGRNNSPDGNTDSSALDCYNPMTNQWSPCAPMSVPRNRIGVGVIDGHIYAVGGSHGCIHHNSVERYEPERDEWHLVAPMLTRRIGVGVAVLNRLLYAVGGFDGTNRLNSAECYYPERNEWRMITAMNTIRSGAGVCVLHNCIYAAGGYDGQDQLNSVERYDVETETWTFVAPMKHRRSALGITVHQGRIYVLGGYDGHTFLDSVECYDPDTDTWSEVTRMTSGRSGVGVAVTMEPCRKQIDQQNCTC

[8] = target: T2, Zinc finger protein mex-5 (Caenorhabditis elegans, UniProt Q9XUB2); test: MEX-5/TCR-2 RNA interaction inhibitors, dose response, biochemical, C. elegans, fluorescence polarization (AID 1960)
T2 sequence (Q9XUB2 whole entry): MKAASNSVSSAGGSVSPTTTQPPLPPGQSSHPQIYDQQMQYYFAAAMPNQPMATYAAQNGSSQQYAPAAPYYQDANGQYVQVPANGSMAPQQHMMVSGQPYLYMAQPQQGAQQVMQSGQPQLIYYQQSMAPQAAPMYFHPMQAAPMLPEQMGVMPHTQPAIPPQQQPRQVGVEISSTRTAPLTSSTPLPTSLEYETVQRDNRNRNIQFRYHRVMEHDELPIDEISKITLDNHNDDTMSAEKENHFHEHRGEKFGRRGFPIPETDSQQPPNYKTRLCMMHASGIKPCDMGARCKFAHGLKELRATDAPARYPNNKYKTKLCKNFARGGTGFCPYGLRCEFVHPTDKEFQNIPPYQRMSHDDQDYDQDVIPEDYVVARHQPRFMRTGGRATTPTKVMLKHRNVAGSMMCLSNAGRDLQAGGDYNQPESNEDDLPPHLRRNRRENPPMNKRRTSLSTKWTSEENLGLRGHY

ORF 73 = target: T3, ORF 73 (Human herpesvirus 8, UniProt O40947); test: inhibitors of C-LANA binding to LBS DNA, dose response, biochemical, fluorescence polarization, cherry-picked samples (AID 504725); design: species or system Human gammaherpesvirus 8;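 note: fluorescence polarization of a labeled DNA duplex reporting LANA DNA binding; potency is for inhibitors that block LANA binding to the DNA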
T3 sequence (O40947 whole entry): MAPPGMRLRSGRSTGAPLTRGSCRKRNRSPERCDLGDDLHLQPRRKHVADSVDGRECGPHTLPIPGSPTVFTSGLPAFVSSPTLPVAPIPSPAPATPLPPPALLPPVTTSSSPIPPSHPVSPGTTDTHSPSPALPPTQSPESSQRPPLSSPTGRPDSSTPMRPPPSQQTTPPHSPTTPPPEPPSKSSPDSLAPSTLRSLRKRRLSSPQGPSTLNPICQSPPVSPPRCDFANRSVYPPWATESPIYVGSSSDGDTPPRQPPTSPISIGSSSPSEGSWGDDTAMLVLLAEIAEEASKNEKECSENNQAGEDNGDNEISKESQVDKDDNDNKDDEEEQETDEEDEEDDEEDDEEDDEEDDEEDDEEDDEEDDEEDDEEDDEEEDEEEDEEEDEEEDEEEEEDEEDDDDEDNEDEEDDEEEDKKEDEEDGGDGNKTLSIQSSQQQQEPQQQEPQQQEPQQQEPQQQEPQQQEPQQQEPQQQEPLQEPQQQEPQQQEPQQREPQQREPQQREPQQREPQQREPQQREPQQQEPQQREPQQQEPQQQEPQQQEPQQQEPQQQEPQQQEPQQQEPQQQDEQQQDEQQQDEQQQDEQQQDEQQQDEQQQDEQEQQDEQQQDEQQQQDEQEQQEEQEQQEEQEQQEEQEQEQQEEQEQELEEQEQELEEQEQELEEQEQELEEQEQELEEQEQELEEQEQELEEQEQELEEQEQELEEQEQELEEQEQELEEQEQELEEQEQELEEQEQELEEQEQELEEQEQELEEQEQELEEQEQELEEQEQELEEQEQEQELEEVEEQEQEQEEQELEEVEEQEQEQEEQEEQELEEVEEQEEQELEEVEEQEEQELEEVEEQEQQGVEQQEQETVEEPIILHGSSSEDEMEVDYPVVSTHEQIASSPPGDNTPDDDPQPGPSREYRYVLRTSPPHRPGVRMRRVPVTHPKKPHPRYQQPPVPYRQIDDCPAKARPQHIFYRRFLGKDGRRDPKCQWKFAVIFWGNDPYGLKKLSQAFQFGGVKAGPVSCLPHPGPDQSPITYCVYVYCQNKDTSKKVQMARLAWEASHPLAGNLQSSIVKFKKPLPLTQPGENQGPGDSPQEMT

[9] = target: UDP-galactopyranose mutase (Mycobacterium tuberculosis, UniProt P9WIQ1); test: Inhibitors of Mycobacterium tuberculosis UDP-galactopyranose mutase (UGM) enzyme Measured in Biochemical System Using Plate Reader - 2105-02_Inhibitor_Dose_CherryPick_Activity. [Related pubchem assays (depositor defined):AID504439]
Sequence of UDP-galactopyranose mutase (P9WIQ1 whole entry, the tested form may be a part): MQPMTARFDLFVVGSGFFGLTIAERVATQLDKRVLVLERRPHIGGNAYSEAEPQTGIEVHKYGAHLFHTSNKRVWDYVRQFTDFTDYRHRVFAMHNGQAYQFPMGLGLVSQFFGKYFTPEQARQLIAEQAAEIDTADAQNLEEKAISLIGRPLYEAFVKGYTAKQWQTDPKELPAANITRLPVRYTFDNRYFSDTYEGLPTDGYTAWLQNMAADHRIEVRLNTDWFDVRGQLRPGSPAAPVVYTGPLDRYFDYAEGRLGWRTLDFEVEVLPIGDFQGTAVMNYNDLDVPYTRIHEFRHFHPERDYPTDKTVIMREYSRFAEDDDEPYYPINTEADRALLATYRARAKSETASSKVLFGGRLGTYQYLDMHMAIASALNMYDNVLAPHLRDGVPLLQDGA

[10] = target: T4, RNA-binding protein pos-1 (Caenorhabditis elegans, UniProt G5EF15); test: inhibitors of POS-1/mex-3 RNA binding, dose response, biochemical, fluorescence polarization (AID 1964);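 note: purified POS-1 fused to maltose binding protein made in E. coli; potency of compounds blocking POS-1 binding to fluorescent RNA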
T4 sequence (G5EF15 whole entry): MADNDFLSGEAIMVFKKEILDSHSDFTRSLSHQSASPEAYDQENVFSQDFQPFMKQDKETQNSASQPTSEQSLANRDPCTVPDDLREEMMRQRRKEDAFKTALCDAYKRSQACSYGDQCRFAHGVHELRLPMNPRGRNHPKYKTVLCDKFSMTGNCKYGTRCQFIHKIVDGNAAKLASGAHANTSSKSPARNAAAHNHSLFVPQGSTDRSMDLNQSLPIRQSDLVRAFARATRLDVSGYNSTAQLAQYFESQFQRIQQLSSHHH

HEK293 [11] = test: cells; type: functional, cell-based; settings: Homo sapiens
[12] = target: T5, Nuclear receptor subfamily 0 group B member 1 (Homo sapiens, UniProt P51843); test: Luminescence-based cell-based high throughput dose response assay for inhibitors of the orphan nuclear receptor subfamily 0, group B, member 1 (DAX1; NR0B1). [Related pubchem assays (depositor defined):AID504766, AID504790]; type: functional
T5 sequence (P51843 whole entry): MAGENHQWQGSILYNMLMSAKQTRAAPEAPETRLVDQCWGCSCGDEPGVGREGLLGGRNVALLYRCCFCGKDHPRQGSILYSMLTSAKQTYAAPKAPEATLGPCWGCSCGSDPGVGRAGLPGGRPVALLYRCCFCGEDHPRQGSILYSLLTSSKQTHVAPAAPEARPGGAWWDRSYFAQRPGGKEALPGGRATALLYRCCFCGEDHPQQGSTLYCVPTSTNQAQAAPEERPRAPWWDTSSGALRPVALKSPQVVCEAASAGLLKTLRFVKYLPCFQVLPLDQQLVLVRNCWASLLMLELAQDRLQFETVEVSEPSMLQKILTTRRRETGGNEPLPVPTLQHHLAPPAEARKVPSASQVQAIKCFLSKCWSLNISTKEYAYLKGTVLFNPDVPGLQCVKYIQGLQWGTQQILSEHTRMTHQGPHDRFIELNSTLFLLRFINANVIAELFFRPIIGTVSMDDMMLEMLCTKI

SMILES: COc1cc(CNC2CCCC2)cc(OC)c1OC
- IC50 (HEK293 [1]): > 89.1 µM (inactive)
- EC50 (Insulin-degrading enzyme [2]): > 54.7 µM (inactive)
- EC50 (Insulin-degrading enzyme [3]): > 54.7 µM (inactive)
- EC50 (HEK293 [4]): > 54.7 µM (inactive)

SMILES: Cc1cc(Cl)c2oc(C(=O)N3CCN(c4ccncc4)CC3)c(C)c2c1
- EC50 [5]: 86.2 µM (inactive)
- EC50 [6]: 1.28 µM (active)
- EC50 [7]: 7.17 µM (active)

SMILES: COc1ccc(NC(=O)NS(=O)(=O)c2ccc(C)cc2)cn1
- AC50 (Keap1/Nrf2): > 52 µM (inactive)
- IC50 (HEK293 [1]): > 89.2 µM (inactive)
- EC50 (Insulin-degrading enzyme [2]): > 54.7 µM (inactive)
- EC50 [8]: 2.38 µM (inconclusive)
- AC50 (ORF 73): 87.5 µM (active)
- EC50 (Insulin-degrading enzyme [3]): > 54.7 µM (inactive)
- EC50 (HEK293 [4]): > 55.9 µM (inactive)
- AC50 [9]: 90.9 µM (active)
- EC50 [10]: 2.37 µM (inconclusive)

SMILES: COc1cc(C(=O)NC2CCN(C)CC2)ccc1Nc1ncc2c(n1)N(Cc1ccccc1)CCC(=O)N2C
- IC50 (HEK293 [11]): > 67.5 µM (inactive)
- IC50 [12]: > 67.5 µM (inactive)
